≈ marks a conversion by molar mass, not a printed value. Like-named read-outs stand apart in the source and are kept apart here.
Tests used:
[1] = test system: Escherichia coli R477-100; assay: Antibacterial activity, MIC by double-microdilution method; format: cell-based; conditions: for improvement of MIC in the presence of DTT: 10 mM DTT vs without DTT, Gram-negative E. coli R477-100; for Gram-negative MIC, DTT 0 mM / Gram-negative MIC, DTT 2 mM: Table 3
[2] = test system: Escherichia coli 25922; assay: as above; format: cell-based; conditions: Table 2, Escherichia coli 25922; for MIC: read-out: Gram-negative MIC b
[3] = test system: Staphylococcus Epidermidis; assay: as above; format: cell-based; conditions: for Gram-positive MIC c: Table 2; for MIC: Table 2, read-out: Gram-positive MIC c
[4] = test system: Bacillus Subtilis; assay: as above; format: cell-based; conditions: Bacillus Subtilis; for Gram-positive MIC d / MIC: Table 2; for Gram-positive MIC, DTT 0 mM / Gram-positive MIC, DTT 2 mM / Gram-positive MIC, DTT 10 mM: Table 3; for MIC: read-out: Gram-positive MIC d
[5] = target: T1, E. coli DNA gyrase (Escherichia coli, UniProt P0AES4+P0AES6); assay: E. coli Gyrase-DNA supercoiling assay; format: biochemical; conditions: supercoiling of relaxed pHOT-1 plasmid in presence of ATP; 37° C., 60 minutes
T1 construct: purchased TopoGEN
Experimental: The DNA supercoiling reactions were based on the manufacturer protocol (TopoGEN). The amount of DNA gyrase used in each assay was optimized by testing various dilutions of the stock. The amount sufficient to supercoil 250 nanograms (ng) of the substrate in 1 hour at 37° C. was then used for testing the compounds (1.1 U as defined by manufacturer). Assays (30 μL) contained 250 nanograms of relaxed pHOT1 plasmid DNA in Tris-HCl buffer (35 mM), pH 7.5, containing KCl (24 mM), MgCl2 (4 mM), DTT (2 mM), Spermidine (1.8 mM), ATP (1 mM), 6.5% (w/v) glycerol and bovine serum albumin (0.1 mg/ml). Reactions were incubated at 37° C. for 60 minutes. Reaction mixtures were stopped by the addition of 30 μL of loading buffer (40% sucrose, 100 mM Tris·HCl (pH 7.5), 1 mM EDTA, 0.5 mg×mL^−1 bromophenol blue) and worked up using 30 μL of 24:1 chloroform/isoamyl alcohol mixture; the aqueous layer was then analyzed using electrophoresis.
Electrophoresis, gel staining, DNA visualization and DNA quantification were performed as described for the DNA cleavage assays.

[6] = test system: supercoiled (+) pHOT-1 plasmid DNA; assay: DNA cleavage assay (gel electrophoresis); format: biochemical; conditions: for DNase activity (cleavage of supercoiled plasmid, form I to form II): absence of adjuvants, HEPES buffer (50 mM, pH 7.4), 5 hours
Experimental: Removal of Ligands Prior to Electrophoresis was performed when more than 100 μM of Cu(II)-ligand or Co(III) ligand (at any concentration) complexes were employed that is, for DNA cleavage assays that were performed in the absence of any adjuvants. An Amberlyst® 15 (Sigma Aldrich) ion-exchange resin was prepared according to the reported literature [Hettich et al. J. Am. Chem. Soc. 1997, 119 (24), 5638-5647] and stored at −20° C. Before use, 0.5 gram of the exchanger was mixed with 250 μL of water. After stopping the DNA-cleavage reaction by addition of EDTA (54 mM, 15 minutes incubation at 37° C.), 10 μL of the exchanger suspension was added, vortexed, and incubated at 37° C. for 15 minutes before centrifugation and electrophoresis.
DNA cleavage activity of the tested Complexes towards supercoiled (+) pHOT-1 plasmid DNA (TopoGEN) was monitored by gel electrophoresis. In a typical experiment, plasmid DNA (200 ng, […]) in HEPES buffer (50 mM, pH 7.4) was mixed with different concentrations of a tested metal complex in the presence or absence of ascorbic acid (0.32 mM). All stock solutions of buffers and of the metal complexes were prepared using HPLC grade water (ChromAR®). Molecular biology reagent grade water (Sigma) was added up to a total reaction volume of 30 μL before incubation for a given time. For the ascorbic acid assays, the reaction was quenched immediately after incubation with EDTA (54 mM). For analysis, 10 μL of loading buffer (40% sucrose, 100 mM Tris-HCl (pH 7.5), 1 mM EDTA, 0.5 mg·mL^−1 bromophenol blue) was added to the incubated solution and loaded onto an agarose (SeaKem LE) gel [1% in TAE×1 buffer (40 mM Tris, 20 mM acetic acid, 1 mM EDTA)]. Electrophoresis was carried out at 60 V for 2 hours. Gels were stained with 1 μg·mL^−1 ethidium bromide for 30 minutes and de-stained in TAE×1 buffer. DNA bands were visualized with medium-range ultraviolet light using Bio-Rad Gel Doc XR+ imaging system. The quantity of different DNA forms (I or II) was estimated using ImageJ software.
Chem. 2015, 2015 (28), 4722-4730; Kashiba-Iwatsuki et al. FEBS Lett. 1996, 389 (2), 149-15].
The copper complex of compound 2 (2-Cu(II)) was used as the positive control in these assays.

[7] = target: T1, E. coli DNA gyrase; assay: E. coli Gyrase-DNA cleavage assay; format: biochemical; conditions: absence of ATP; for linearization of supercoiled DNA with DNA gyrase, after Proteinase K: second incubation with SDS and Proteinase K
Experimental: E. coli gyrase enzyme was purchased from TopoGEN and the DNA cleavage reactions were based on the protocol of Inspiralis. Assays (30 μL) contained supercoiled (+) pHOT1 plasmid (200 nanograms) and DNA gyrase (5 U as defined by manufacturer) in 35 mM Tris-HCl (pH 7.5), 24 mM KCl, 4 mM MgCl2, 2 mM DTT, 1.8 mM Spermidine, 6.5% (w/v) glycerol and 0.1 mg/mL bovine serum albumin. Reactions were incubated at 37° C. for 60 minutes. Enzyme-DNA cleavage complexes were trapped by adding 3 μL of 2% SDS. Following this, 1.5 μL of 10 mg/mL Proteinase K (Sigma-Aldrich) was added (where relevant) and the reaction mixtures were incubated at 37° C. for 30 minutes to digest the enzyme gyrase. Samples were mixed with 30 μL of loading buffer (40% sucrose, 100 mM Tris-HCl (pH 7.5), 1 mM EDTA, 0.5 mg-ml-1 bromophenol blue) and worked up using 30 μL of 24:1 chloroform/isoamyl alcohol mixture; the aqueous layer was then analyzed using electrophoresis. Electrophoresis, gel staining, DNA visualization and DNA quantification were performed as described for the DNA cleavage assays. DNA double stranded cleavage was monitored by the conversion of supercoiled plasmid to linear DNA and quantified in comparison to a control drug-free reaction.
To investigate the mechanism of inhibition, a DNA gyrase-induced DNA cleavage assay was performed in the absence of ATP. In this assay, the production of linear DNA from supercoiled DNA is measured as a function of compound concentration. […] Consequently, for the purposes of this assay, it is necessary to perform a second incubation of the reaction mixture with SDS and Proteinase K, which enables the digestion of the DNA gyrase enzyme and thereby ‘frees’ the linear DNA (Form III) so that it moves during electrophoresis.

[8] = Table 2, Escherichia coli R477-100, without DTT
[9] = R477100, Table 2, Escherichia coli R477-100, without DTT, read-out: Gram-negative MIC a

| Gram-negative MIC, DTT 10 mM ([1]; Escherichia coli R477-100) | Gram-negative MIC, DTT 0 mM ([1]; Escherichia coli R477-100) | Gram-negative MIC, DTT 2 mM ([1]; Escherichia coli R477-100) | Gram-positive MIC, DTT 0 mM [4] | Gram-positive MIC, DTT 2 mM [4] | Gram-positive MIC, DTT 10 mM [4] | SMILES | Gram-negative MIC a [1, 8] | Gram-negative MIC b [2] | Gram-positive MIC c [3] | Gram-positive MIC d [4] | IC50 [5] | DNase activity (cleavage of supercoiled plasmid, form I to form II) [6] | linearization of supercoiled DNA with DNA gyrase, after Proteinase K [7] | MIC [1, 9] | MIC [2] | MIC [3] | MIC [4] | also measured |
| --- | --- | --- | --- | --- | --- | --- | --- | --- | --- | --- | --- | --- | --- | --- | --- | --- | --- | --- |
| – | – | – | – | – | – | O.O=C(O)c1cn(C2CC2)c2cc(N3CCN(CCCCCCN4CCNCCNCCNCC4)CC3)c(F)cc2c1=O.[Cu+2] [1-Cu(II)] | 24 µg/mL | 48 µg/mL | 24 µg/mL | 48 µg/mL | 100 ± 10 nM | very significant enhancement in the rates of DNA cleavage | linearized the DNA in a similar manner to the metal-free ligands | – | – | – | – | improvement of MIC in the presence of DTT [1]: no change whatsoever; concentration giving almost complete smearing of the DNA (multiply nicked DNA) ([6]; ascorbic acid (0.32 mM), HEPES pH 7.4, 2 hours): > 40 µM; generation of linear DNA with DNA gyrase, without Proteinase K ([7]; without Proteinase K treatment, buffer with DTT): not able to generate linear DNA at any concentration |
| – | – | – | – | – | – | O.O=C(O)c1cn(C2CC2)c2cc(N3CCN(CCCCCCCCN4CCNCCNCCNCC4)CC3)c(F)cc2c1=O.[Cu+2] [3-Cu(II)] | 12 µg/mL | 6 µg/mL | 6 µg/mL | 6 µg/mL | – | only very limited activity | – | – | – | – | – | – |
| – | – | – | – | – | – | O.O=C(O)c1cn(C2CC2)c2cc(N3CCN(Cc4ccc(CN5CCNCCNCCNCC5)cc4)CC3)c(F)cc2c1=O.[Co+3].[OH-] [4-Co(III)] | 12 µg/mL | 6 µg/mL | 6 µg/mL | 6 µg/mL | – | – | – | – | – | – | – | DNase activity at micromolar concentrations ([6]; FIG. 32: 0.2 μg DNA over 2 hours (Co(III)-cyclen, 4-Co(III)), 0.6 μg DNA over 10 hours (23-Co(III))): strong DNA binding but no DNase activity |
| – | – | – | – | – | – | O.O=C(O)c1cn(C2CC2)c2cc(N3CCN(Cc4ccc(CCCN5CCNCCNCCNCC5)cc4)CC3)c(F)cc2c1=O.[Cu+2] [6-Cu(II)] | 6 µg/mL | 3 µg/mL | 3 µg/mL | 6 µg/mL | 90 ± 10 nM | only very limited activity | – | – | – | – | – | – |
| 3 µg/mL | 24 µg/mL | 6 µg/mL | 12 µg/mL | 6 µg/mL | 3 µg/mL | NCCN1CCNCCNCCN(Cc2ccc(CN3CCN(c4cc5c(cc4F)c(=O)c(C(=O)[O-])cn5C4CC4)CC3)cc2)CC1.[Cu+2] [23-Cu(II)] | 24 µg/mL | 24 µg/mL | 12 µg/mL | 12 µg/mL | – | significant hydrolytic DNase activity | – | – | – | – | – | improvement of MIC in the presence of DTT [1]: significant improvement in antibacterial activity |
| – | – | – | – | – | – | O=C(O)c1cn(C2CC2)c2cc(N3CCN(CCCCCCN4CCNCCNCCNCC4)CC3)c(F)cc2c1=O [Compound 1] | – | – | – | – | 130 ± 30 nM | – | significant linearization of DNA | 12 µg/mL (≈ 20.5 µM) | 24 µg/mL (≈ 41 µM) | 12 µg/mL (≈ 20.5 µM) | 12 µg/mL (≈ 20.5 µM) | – |
| – | – | – | – | – | – | O=C(O)c1cn(C2CC2)c2cc(N3CCN(CCCCCCCN4CCNCCNCCNCC4)CC3)c(F)cc2c1=O [Compound 2] | – | – | – | – | 240 ± 30 nM | – | significant linearization of DNA | 12 µg/mL (≈ 20 µM) | 6 µg/mL (≈ 10 µM) | 12 µg/mL (≈ 20 µM) | 12 µg/mL (≈ 20 µM) | – |
| – | – | – | – | – | – | O=C(O)c1cn(C2CC2)c2cc(N3CCN(Cc4ccc(CN5CCNCCNCCNCC5)cc4)CC3)c(F)cc2c1=O [Compound 4] | – | – | – | – | 150 ± 10 nM | – | significant linearization of DNA | 12 to 24 µg/mL (≈ 19.8 to 39.6 µM) | 12 to 24 µg/mL (≈ 19.8 to 39.6 µM) | 6 to 12 µg/mL (≈ 9.9 to 19.8 µM) | 6 to 12 µg/mL (≈ 9.9 to 19.8 µM) | – |
| 12 µg/mL | 12 µg/mL | 12 µg/mL | 6 µg/mL | 6 to 12 µg/mL | 6 µg/mL | N=C(N)NCCN1CCNCCNCCN(Cc2ccc(CN3CCN(c4cc5c(cc4F)c(=O)c(C(=O)O)cn5C4CC4)CC3)cc2)CC1 [Compound 19] | 12 µg/mL | 12 µg/mL | 6 µg/mL | 6 µg/mL | – | significant DNase activity | – | – | – | – | – | – |
| 12 µg/mL | 24 µg/mL | 12 µg/mL | 6 µg/mL | 6 µg/mL | 3 µg/mL | NCCN1CCNCCNCCN(Cc2ccc(CN3CCN(c4cc5c(cc4F)c(=O)c(C(=O)O)cn5C4CC4)CC3)cc2)CC1 [Compound 23] | 24 µg/mL | 24 µg/mL | 12 µg/mL | 6 µg/mL | – | significant DNase activity | – | – | – | – | – | MIC ([1]; E. coli R477-100, metal-free compound): 24 µg/mL (≈ 37 µM) |

Reference: patent publication US20230357189A1, “MODIFIED FLUOROQUINOLONES AND USES THEREOF” (Technion Research & Development Foundation Limited, priority 2021, published 2023)
